Reference: patent US5024994A, “Renin inhibitors IV” (Warner-Lambert Company, priority 1988, dated 1991)
Like-named read-outs stand apart in the source and are kept apart here.

Target: T1, renin (Homo sapiens, UniProt P00797)
T1 sequence (P00797 67-406): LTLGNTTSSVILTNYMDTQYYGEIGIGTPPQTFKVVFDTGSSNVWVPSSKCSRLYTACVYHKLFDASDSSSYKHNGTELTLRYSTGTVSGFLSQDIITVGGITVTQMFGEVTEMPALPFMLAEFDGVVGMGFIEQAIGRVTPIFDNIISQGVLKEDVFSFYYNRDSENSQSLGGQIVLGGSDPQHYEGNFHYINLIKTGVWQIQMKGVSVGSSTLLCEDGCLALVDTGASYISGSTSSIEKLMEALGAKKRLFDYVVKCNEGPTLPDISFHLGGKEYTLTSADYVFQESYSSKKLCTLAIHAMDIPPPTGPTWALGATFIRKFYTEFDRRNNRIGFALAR
Experiment: in vitro renin inhibitory activity, radioimmunoassay for angiotensin I
Assay type: biochemical
Description: The effectiveness of the aforementioned compounds is determined by a test for in vitro renin inhibitory activity. This activity is determined by a standard radioimmunoassay for angiotensin I. In this assay the enzyme, renin, incubated for two hours at 37° in the presence of a substrate, angiotensinogen, generates the product, angiotensin I. Test compounds are added to the incubation mixture.

| IC50 (read-out: IC50) | Molecule | also measured |
| --- | --- | --- |
| 910 nM | CC(C)C[C@H](NC(=O)C[C@H](O)[C@H](CC(C)C)NC(=O)[C@H](CCCN1C(=O)c2ccccc2C1=O)NC(=O)[C@H](Cc1ccccc1)NC(=O)OC(C)(C)C)C(=O)NCc1ccccc1 [Example 4, BOC-PHE-ORN(PHT)-STA-LEU-NHCH2 Ph] | – |
| – | CC[C@H](C)CNC(=O)C[C@H](O)[C@H](CC(C)C)NC(=O)[C@H](CCCCNS(=O)(=O)c1ccc(C)cc1)NC(=O)C(Cc1cccc2ccccc12)Cc1cccc2ccccc12 [Example 41, DNMA-LYS(TOS)-STA-NHCH2 CH(CH3)CH2 CH3] | IC50: 3000 nM |
| 60 nM | CC[C@H](C)CNC(=O)C[C@H](O)[C@H](CC(C)C)NC(=O)[C@H](CCCCNC(=O)OC)NC(=O)C(Cc1cccc2ccccc12)Cc1cccc2ccccc12 [Example 42, DNMA-LYS(CO2 CH3)-STA-NHCH2 CH(CH3)CH2 CH3] | – |
| – | DNMA-LYS(Z)-STA-LEU-NHCH2 Ph | IC50 (renin incubated two hours at 37° with angiotensinogen, molar concentration causing 50% inhibition, read-out: IC50): 2900 nM |
